Data set [1] concerns Pseudomonas aeruginosa (NCTC 7244). Kind of data set: minimum bactericidal concentration (MBC). The conditions noted are these: NCTC7244, 18 h, subculture on HIA medium, 37° C. Type of data set: cell-based. The protocol: (§1) The compounds obtained in Synthesis Examples 1 and 2 were tested in the following manner.
(§2) A suspension of Pseudomonas aeruginosa (NCTC 7244) cultivated at 37° C. for 18 hours in a heart infusion broth medium (HIB medium) in a final amount of 10^5, 10^6 and 10^7 cells/ml in an HIB medium containing each of the test compounds which was obtained in the same way as in Referential Example 1 except that the maximum concentration of the test compound was 200 μg/ml. The bacterial strain was cultivated at 37° C. for 18 hours, and the turbidity of the culture broth was evaluated with the naked eye. The minimum concentration of the test compound at which no turbidity was noted was defined as MIC.
After the determination of MIC, one platinum loopful of each of the culture broths in various concentrations was taken out from the test tubes, and inoculated in a separately provided plate of an HIA medium not containing the test compound, and incubated at 37° C. for 18 hours. The growth of the bacterial strain was evaluated.

Data set [2] has the same test system. The experiment in a line: MIC in HIB medium at different inocula (turbidity). The following applies: NCTC7244, 18 h, 37° C. It is filed as cell-based. The protocol: as §1, §2
The subject of data set [3] is Klebsiella pneumonia (F-5089). The experiment in a line: minimum growth inhibitory concentration (MIC) method. The conditions noted are these: Klebsiella pneumoniae, HIA medium, 37° C., 18 hours, sodium salts. Type of data set: cell-based. How it is done:
(§3) The antibacterial activities of the cephalosporins of this invention were measured using the sodium salts of the compounds obtained in Synthesis Examples 1 and 2. The procedure and the results are shown in Referential Example 1.
(§4) Carbenicillin sodium salt (CB-PC) and cephazoline sodium salt (CEZ) were used as controls.
(§5) The antibacterial activities of the test compounds against various Gram-positive and Gram-negative bacteria were determined in a customary manner by the minimum growth inhibitory concentration method (MIC method).
(§6) A commercially available heart infusion agar medium (to be abbreviated HIA medium) was used as an assay medium, and a commercially available trypto-soy bouillon medium (to be abbreviated TSB) was used as a medium for the growth of test bacterial strains.
(§7) The test compound was diluted with the melted HIA medium to 100 μg/ml as a maximum concentration, and then serially diluted double. The dilutions were poured into sterilized Petri dishes respectively and allowed to cool and solidify to prepare plates containing the test compound.
(§8) The test bacterial strain was cultivated at 37° C. for 18 to 24 hours in the TSB medium. The culture broth was diluted to 50 to 500 times with a freshly prepared TSB culture medium, and one platinum loopful of the dilution was inoculated in each of the plates containing the test compound. The plate was incubated at 37° C. for 18 hours, and the state of growth of the strain on the plate was observed, and the minimum growth inhibitory concentration (MIC) of the test compound was determined.

Data set [4] has as its system Pseudomonas aeruginosa (F1629). Described as above. It is filed as cell-based. The conditions noted are these: P. aeruginosa F1629, HIA medium, 37° C., 18 hours, sodium salts. How it is done:
as §3, §4, §5, §6, §7, §8

A short description of data set [5]: blood level in rats after intramuscular administration. It is filed as in vivo. The conditions noted are these: rat, im, 20 mg/kg i.m., serum, read-out: Blood level after administration (average value ± standard deviation); for concentration at 0.25 h: 15 minutes; for concentration at 0.5 h: 30 minutes; for concentration at 1 h: 60 minutes; for concentration at 2 h: 120 minutes. The protocol: The compounds of this invention prepared in synthesis Examples 1 and 2 were each administered intramuscularly to rats, and the concentrations of the compounds in the blood were determined.
Each of the test compounds was intramuscularly injected into the femoral part of rats in a customary manner in a dose of 20 mg/kg for each rat. The blood was drawn by incising the cervical artery and vein at the end of 15 minutes, 30 minutes, 60 minutes, 120 minutes, and 240 minutes after the injection. The separated sera were used for the measurement of the blood level of the test compound. The concentrations of the test compounds in the sera were determined by a thin-layer cup method using Micrococcus luteus ATCC 9341 as an assay microorganism.

In patent US4283398A, “Cephalosporins” (Mitsui Toatsu Chemicals, Inc., priority 1978, dated 1981) one finds MBC, MIC and concentration data, which are given here for four compounds.

Converted amounts (≈) assume the structure as drawn. A value given as a limit tells only on which side of the number the result lay.

What is called MBC is the smallest concentration meeting the test's criterion for killing. Read a high MBC as weaker bactericidal potency. By MIC is commonly meant the least concentration at which growth counts as inhibited.

Take `Cc1nnc(SCC2=C(C(=O)O)N3C(=O)[C@@H](NC(=O)Cn4cnnn4)[C@H]3SC2)s1` [CEZ, sodium 7-[1-(1H)-tetrazoylacetamido]-3-[2-(5-methyl-1,3,4-thiadiazoyl)-thiomethyl]-Δ^3, cephem-4-carboxylate, reference compound]: the minimum bactericidal concentration (MBC) in data set [1] (inoculum 10^5 cells/ml), in data set [1] (inoculum 10^6 cells/ml) and in data set [1] (inoculum 10^7 cells/ml) was more than 200 µg/mL throughout. Besides, the MIC in data set [2] (inoculum 10^5 cells/ml) was more than 200 µg/mL; in data set [2] (inoculum 10^6 cells/ml), more than 200 µg/mL; in data set [2] (inoculum 10^7 cells/ml) it was more than 200 µg/mL; in data set [3], 3.13 µg/mL; in data set [4], more than 100 µg/mL.

As for `CC1(C)S[C@@H]2[C@H](NC(=O)C(C(=O)O)c3ccccc3)C(=O)N2[C@H]1C(=O)O` (stereo partly drawn) [CB-PC, disodium-α-carboxybenzyl penicillin, reference compound], the MBC is 100 µg/mL in data set [1] (inoculum 10^5 cells/ml), 100 µg/mL in data set [1] (inoculum 10^6 cells/ml) and more than 200 µg/mL in data set [1] (inoculum 10^7 cells/ml). For the same compound, the MIC in data set [2] (inoculum 10^5 cells/ml) is 50 µg/mL; in data set [2] (inoculum 10^6 cells/ml), 100 µg/mL; in data set [2] (inoculum 10^7 cells/ml), 200 µg/mL; in data set [3] it was 50 µg/mL; in data set [4], more than 100 µg/mL.

Turning to `Cn1nnnc1SCC1=C(C(=O)O)N2C(=O)C(NC(=O)[C@H](NC(=O)c3cnc4c(c3O)C(=O)CCC4)c3ccc(O)cc3)C2SC1` (single isomer, unassigned) [Synthesis Example 2, 7-[D-(-)-α-(4-hydroxy-5-oxo-5,6,7,8-tetrahydroquinoline-3-carboxamide)-α-(4-hydroxyphenyl)acetamido]-3-[[(1-methyl-1H-tetrazol-5-yl)thio]methyl]-Δ^3-cephem-4-carboxylic acid], in data set [5], the concentration at 0.25 h was determined as 20000 ± 1400 ng/mL. Also, the concentration at 0.5 h in data set [5] was determined as 14400 ± 2500 ng/mL. The concentration at 1 h in data set [5] is 8000 ± 4000 ng/mL. Moreover, the concentration at 2 h in data set [5] stood at 3200 ± 1200 ng/mL. Further, the minimal bactericidal concentration (MBC) was 6.25 µg/mL (≈ 9.37 µM) in data set [1] (inoculum 10^5 cells/ml), 12.5 µg/mL (≈ 18.7 µM) in data set [1] (inoculum 10^6 cells/ml) and more than 200 µg/mL in data set [1] (inoculum 10^7 cells/ml). In addition, the minimum inhibitory concentration (MIC) came out at 6.25 µg/mL (≈ 9.37 µM) in data set [2] (inoculum 10^5 cells/ml), 6.25 µg/mL (≈ 9.37 µM) in data set [2] (inoculum 10^6 cells/ml), 12.5 µg/mL (≈ 18.7 µM) in data set [2] (inoculum 10^7 cells/ml) and 3.13 µg/mL in data set [4].

Consider `Cn1nnnc1SCC1=C(C(=O)O)N2C(=O)C(NC(=O)[C@H](NC(=O)c3cnc4c(c3O)C(=O)CCC4)c3ccccc3)C2SC1` (single isomer, unassigned) [Synthesis Example 1, 7-[D-(-)-α-(4-hydroxy-5-oxo-5,6,7,8-tetrahydroquinoline-3-carboxamide)phenylacetamido)-3-[[(1-methyl-1H-tetrazol-5-yl)thio]methyl]-Δ^3-cephem-4-carboxylic acid], for which the concentration at 0.25 h in data set [5] is 12100 ± 3600 ng/mL. Also, the concentration at 0.5 h in data set [5] is 10500 ± 2200 ng/mL. In addition, the concentration at 1 h in data set [5] came to 9100 ± 3200 ng/mL. Moreover, the concentration at 2 h in data set [5] was 4800 ± 2100 ng/mL. For the same compound, the MBC in data set [1] (inoculum 10^5 cells/ml) is 12.5 µg/mL (≈ 19.2 µM); in data set [1] (inoculum 10^6 cells/ml), 12.5 µg/mL (≈ 19.2 µM); in data set [1] (inoculum 10^7 cells/ml), more than 200 µg/mL. Further, the minimum inhibitory concentration (MIC) in data set [2] (inoculum 10^5 cells/ml) was 12.5 µg/mL (≈ 19.2 µM); in data set [2] (inoculum 10^6 cells/ml) it was 12.5 µg/mL (≈ 19.2 µM); in data set [2] (inoculum 10^7 cells/ml), 25 µg/mL (≈ 38.4 µM); in data set [4] it was 6.25 µg/mL.
